Experimental data reported in ChEMBL document CHEMBL1201862, “PubChem BioAssay data set” (2004).
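1) Cells in 96-well plates. 2) Compound, 48 h, 5 concentrations. 3) Linear interpolation between surrounding doses. 4) Unreached endpoint = highest concentration. GI50 is the concentration that inhibits growth by half.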 The source made the active and inactive calls. No stated cut-off is given here; in the data, active = GI50 up to about 1.1 µM and inactive = higher.

What was measured:
Test in all cases: NCI-60 cell line screen, 48 h
[1] = tested on: BT-549
[2] = tested on: SNB-75
[3] = tested on: NCI/ADR-RES
[4] = tested on: PC-3
[5] = tested on: HOP-92
[6] = tested on: SF-295
[7] = tested on: OVCAR-5
[8] = tested on: MCF7
[9] = tested on: SNB-19
[10] = tested on: UO-31
[11] = tested on: HCT-15
[12] = tested on: K562
[13] = tested on: OVCAR-4
[14] = tested on: HT-29
[15] = tested on: UACC-257
[16] = tested on: HCT-116
[17] = tested on: KM12
[18] = tested on: OVCAR-8
[19] = tested on: HL-60
[20] = tested on: SK-MEL-2
[21] = tested on: LOX IMVI
[22] = tested on: U-251
[23] = tested on: SK-MEL-5
[24] = tested on: Malme-3M
[25] = tested on: MDA-MB-435
[26] = tested on: SF-268
[27] = tested on: COLO 205
[28] = tested on: SW-620
[29] = tested on: EKVX
[30] = tested on: NCI-H460
[31] = tested on: NCI-H23
[32] = tested on: HOP-62
[33] = tested on: OVCAR-3
[34] = tested on: CAKI-1
[35] = tested on: T47D
[36] = tested on: IGROV-1
[37] = tested on: NCI-H226
[38] = tested on: 786-0
[39] = tested on: CCRF-CEM
[40] = tested on: Hs-578T
[41] = tested on: SK-OV-3
[42] = tested on: UACC-62
[43] = tested on: SN12C
[44] = tested on: MOLT-4
[45] = tested on: A549
[46] = tested on: M14
[47] = tested on: RPMI-8226
[48] = tested on: TK-10
[49] = tested on: DU-145
[50] = tested on: MDA-MB-231
[51] = tested on: MDA-N
[52] = tested on: ACHN
[53] = tested on: HCC 2998
[54] = tested on: NCI-H522
[55] = tested on: SK-MEL-28
[56] = tested on: A498
[57] = tested on: RXF 393
[58] = tested on: SF-539
[59] = tested on: SR

COc1ncc(C#CC(=O)c2ccccc2)c(OC)n1
GI50 [1]: 2.17 µM (inactive)
GI50 [2]: 5.2 µM (inactive)
GI50 [3]: 2.72 µM (inactive)
GI50 [4]: 1.89 µM (inactive)
GI50 [5]: 2.15 µM (inactive)
GI50 [6]: 16.6 µM (inactive)
GI50 [7]: 5.04 µM (inactive)
GI50 [8]: 0.378 µM (active)
GI50 [9]: 15.8 µM (inactive)
GI50 [10]: 2.03 µM (inactive)
GI50 [11]: 1.37 µM
GI50 [12]: 0.726 µM (active)
GI50 [13]: 4.7 µM (inactive)
GI50 [14]: 1.88 µM (inactive)
GI50 [15]: 5.64 µM (inactive)
GI50 [16]: 4.95 µM (inactive)
GI50 [17]: 6.85 µM (inactive)
GI50 [18]: 2.78 µM (inactive)
GI50 [19]: 1.23 µM (inactive)
GI50 [20]: 5.07 µM (inactive)
GI50 [21]: 0.815 µM (active)
GI50 [22]: 4.71 µM (inactive)
GI50 [23]: 2.09 µM (inactive)
GI50 [24]: 1.67 µM (inactive)
GI50 [25]: 3.91 µM (inactive)
GI50 [26]: 10.4 µM (inactive)
GI50 [27]: 1.99 µM (inactive)
GI50 [28]: 1.63 µM (inactive)
GI50 [29]: 3.51 µM (inactive)
GI50 [30]: 13.4 µM (inactive)
GI50 [31]: 4.33 µM (inactive)
GI50 [32]: 19.3 µM (inactive)
GI50 [33]: 5.11 µM (inactive)
GI50 [34]: 2.76 µM (inactive)
GI50 [35]: 5.83 µM (inactive)
GI50 [36]: 2.1 µM (inactive)
GI50 [37]: 2.07 µM (inactive)
GI50 [38]: 2.04 µM (inactive)
GI50 [39]: 0.183 µM (active)
GI50 [40]: 24.5 µM (inactive)
GI50 [41]: 19.7 µM (inactive)
GI50 [42]: 4.03 µM (inactive)
GI50 [43]: 1.4 µM (inactive)
GI50 [44]: 0.679 µM (active)
GI50 [45]: 11.6 µM (inactive)
GI50 [46]: 2.22 µM (inactive)
GI50 [47]: 2.33 µM (inactive)
GI50 [48]: 1.67 µM (inactive)
GI50 [49]: 8.07 µM (inactive)
GI50 [50]: 1.95 µM (inactive)
GI50 [51]: 1.71 µM (inactive)
GI50 [52]: 1.77 µM (inactive)
GI50 [53]: 6.12 µM (inactive)
GI50 [54]: 1.27 µM (inactive)
GI50 [55]: 5.11 µM (inactive)
GI50 [56]: 17.9 µM (inactive)
GI50 [57]: 1.85 µM (inactive)

O=C(O)/C=c1/c2ccccc2n2nc3ccccc3c12
GI50 [58]: 19.8 µM (inactive)
GI50 [1]: 37.4 µM (inactive)
GI50 [3]: 29.5 µM (inactive)
GI50 [4]: > 100 µM (inactive)
GI50 [59]: 16.6 µM (inactive)
GI50 [6]: 30.8 µM (inactive)
GI50 [7]: 57.9 µM (inactive)
GI50 [8]: 35.2 µM (inactive)
GI50 [9]: 31.8 µM (inactive)
GI50 [10]: 37.6 µM (inactive)
GI50 [11]: 26.8 µM
GI50 [12]: 36.6 µM (inactive)
GI50 [13]: 22.8 µM (inactive)
GI50 [14]: 39.3 µM (inactive)
GI50 [15]: 20.9 µM (inactive)
GI50 [16]: 24.8 µM (inactive)
GI50 [17]: 20.4 µM (inactive)
GI50 [18]: 21.5 µM (inactive)
GI50 [19]: 34.1 µM (inactive)
GI50 [20]: 39.7 µM (inactive)
GI50 [21]: 21.9 µM (inactive)
GI50 [22]: 33.6 µM (inactive)
GI50 [23]: 14.2 µM (inactive)
GI50 [24]: 25.2 µM (inactive)
GI50 [25]: 31.6 µM (inactive)
GI50 [26]: 38.4 µM (inactive)
GI50 [27]: 17.2 µM (inactive)
GI50 [28]: 35.6 µM (inactive)
GI50 [29]: 37.1 µM (inactive)
GI50 [30]: 30.1 µM (inactive)
GI50 [31]: 27.7 µM (inactive)
GI50 [32]: 31.6 µM (inactive)
GI50 [33]: 33.5 µM (inactive)
GI50 [34]: 37.3 µM (inactive)
GI50 [35]: 55.5 µM (inactive)
GI50 [36]: 31.4 µM (inactive)
GI50 [38]: 38.6 µM (inactive)
GI50 [39]: 33.2 µM (inactive)
GI50 [40]: 23.6 µM (inactive)
GI50 [41]: 22.8 µM (inactive)
GI50 [42]: 17.5 µM (inactive)
GI50 [43]: 26.7 µM (inactive)
GI50 [44]: 23 µM (inactive)
GI50 [45]: 38.2 µM (inactive)
GI50 [46]: 31.2 µM (inactive)
GI50 [47]: 25.8 µM (inactive)
GI50 [48]: 30.3 µM (inactive)
GI50 [49]: 41.6 µM (inactive)
GI50 [50]: 39.1 µM (inactive)
GI50 [51]: 26 µM (inactive)
GI50 [52]: 23.8 µM (inactive)
GI50 [53]: 24.1 µM (inactive)
GI50 [54]: 20.7 µM (inactive)
GI50 [55]: 26 µM (inactive)
GI50 [56]: 22 µM (inactive)
GI50 [57]: 49.1 µM (inactive)
